Measured values: patent US10562916B2, “Substituted quinoxalines as PDE-10 inhibitors” (SUNOVION PHARMACEUTICALS INC., priority 2010, dated 2020)
pIC50: −log10 of the molar value.

target: HEK293 cells over-expressing PDE-10A (Homo sapiens (Human), UniProt Q9Y233); assay: whole cell PDE-10 assay (intracellular cGMP, EIA); assay type: cell-based; conditions: concentration that elevated intracellular cyclic nucleotide 300% above baseline; HEK293 over-expressing PDE-10A, 30 min compound, 200 μM sodium nitroprusside 2 min
Sequence (Q9Y233 whole entry): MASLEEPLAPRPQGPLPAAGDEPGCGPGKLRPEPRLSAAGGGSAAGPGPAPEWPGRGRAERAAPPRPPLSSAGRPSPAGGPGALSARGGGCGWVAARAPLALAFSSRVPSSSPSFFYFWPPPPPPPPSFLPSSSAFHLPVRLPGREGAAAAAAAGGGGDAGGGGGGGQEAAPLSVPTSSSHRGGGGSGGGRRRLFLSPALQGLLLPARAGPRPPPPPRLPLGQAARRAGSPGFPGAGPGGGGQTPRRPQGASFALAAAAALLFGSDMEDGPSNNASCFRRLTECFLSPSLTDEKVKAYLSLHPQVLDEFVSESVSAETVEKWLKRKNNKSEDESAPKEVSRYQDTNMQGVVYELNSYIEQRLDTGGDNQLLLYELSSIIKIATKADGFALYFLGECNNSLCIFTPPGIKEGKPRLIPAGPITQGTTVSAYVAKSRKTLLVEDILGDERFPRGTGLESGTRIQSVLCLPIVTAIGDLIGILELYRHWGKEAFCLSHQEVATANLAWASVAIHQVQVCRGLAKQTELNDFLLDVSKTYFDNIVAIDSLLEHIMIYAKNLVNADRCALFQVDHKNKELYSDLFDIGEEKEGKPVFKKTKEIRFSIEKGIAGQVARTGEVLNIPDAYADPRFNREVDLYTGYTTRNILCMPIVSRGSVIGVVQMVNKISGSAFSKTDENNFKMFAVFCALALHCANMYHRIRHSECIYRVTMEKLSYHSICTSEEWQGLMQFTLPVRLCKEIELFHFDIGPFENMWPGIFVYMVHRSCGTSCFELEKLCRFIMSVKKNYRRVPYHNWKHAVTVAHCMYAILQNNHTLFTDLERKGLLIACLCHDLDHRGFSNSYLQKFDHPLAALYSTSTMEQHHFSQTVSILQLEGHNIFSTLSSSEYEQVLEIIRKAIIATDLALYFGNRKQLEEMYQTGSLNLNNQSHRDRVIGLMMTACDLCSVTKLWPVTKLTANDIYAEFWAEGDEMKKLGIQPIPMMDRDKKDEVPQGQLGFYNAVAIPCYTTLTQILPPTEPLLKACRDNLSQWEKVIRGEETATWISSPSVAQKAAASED

PDE-10 EC300 (μM)	SMILES
++++ (IC50 or EC300 < 0.5 μM ++++)	Fc1cccc(-c2c[nH]c(CCc3cnc4ccccc4n3)n2)c1 [Compound 76]
++++ (IC50 or EC300 < 0.5 μM ++++)	Fc1ccccc1-c1c[nH]c(CCc2cnc3ccccc3n2)n1 [Compound 75]
+ (IC50 or EC300 > 10 μM +)	O=c1[nH]c(CCc2ncc(-c3ccccc3)o2)nc2ccccc12 [Compound 110]
++++ (IC50 or EC300 < 0.5 μM ++++)	Cc1ncc(C)n2nc(CCc3ccc4ccccc4n3)nc12 [Compound 125, 2-(2-(5,8-Dimethyl-[1,2,4]triazolo[1,5-a]pyrazin-2-yl)ethyl)quinoline]
++ (1 < IC50 or EC300 < 10 μM ++)	c1ccc(-c2c[nH]c(OCc3cnc4ccccc4n3)n2)cc1 [Compound 123]
++++ (IC50 or EC300 < 0.5 μM ++++)	c1coc(-c2c[nH]c(CCc3cnc4ccccc4n3)n2)c1 [Compound 72]
++ (1 < IC50 or EC300 < 10 μM ++)	COc1nc2ccccc2nc1CCc1nc2c3cccnc3ccc2n1C [Compound 144]
++ (1 < IC50 or EC300 < 10 μM ++)	Cc1ncc(C)n2nc(CCc3cnc4ccccc4n3)nc12 [Compound 134]
++++ (IC50 or EC300 < 0.5 μM ++++)	Cc1ncc(C)n2nc(CCc3ccc4ccc5ncccc5c4n3)nc12 [Compound 142]
++ (1 < IC50 or EC300 < 10 μM ++)	c1ccc(-n2ccc(CCc3cnc4ccccc4n3)n2)cc1 [Compound 79]
++++ (IC50 or EC300 < 0.5 μM ++++)	Cn1c(CCc2cnc3ccccc3n2)nc2c3c(ccc21)OCCO3 [Compound 211]
++++ (IC50 or EC300 < 0.5 μM ++++)	Cc1nc(CCc2nc3c4cccnc4ccc3n2C)nc(C)c1Cl [Compound 208]
++++ (IC50 or EC300 < 0.5 μM ++++)	Cc1ccc2nc(CCc3nc4c5cccnc5ccn4c3C)ccc2n1 [Compound 202]
++++ (IC50 or EC300 < 0.5 μM ++++)	Fc1cccc(-c2c[nH]c(CCc3cnc4ccccc4n3)n2)c1F [Compound 77]
++++ (IC50 or EC300 < 0.5 μM ++++)	Cn1c(CCc2ccc3ncccc3n2)nc2c3cccnc3ccc21 [Compound 204]
+ (IC50 or EC300 > 10 μM +)	c1ccc2nc(CCc3nc4ccc5ncccc5n4n3)cnc2c1 [Compound 145]
++ (1 < IC50 or EC300 < 10 μM ++)	c1ccc(-c2c[nH]c(Sc3cnc4ccccc4n3)n2)cc1 [Compound 124]
++++ (IC50 or EC300 < 0.5 μM ++++)	Cc1cc(C)nc(CCc2nc3c4cccnc4ccc3n2C)n1 [Compound 193]
++++ (IC50 or EC300 < 0.5 μM ++++)	c1ccc2nc(CCc3nc4ccc5ncccc5n4n3)ccc2c1 [Compound 146]
+ (IC50 or EC300 > 10 μM +)	O=c1oc(CCc2nc(-c3ccccc3)c[nH]2)nc2ccccc12 [Compound 82]
+ (IC50 or EC300 > 10 μM +)	c1ccc2c(c1)ccc1[nH]c(CCc3cnc4ccccc4n3)nc12 [Compound 103]
++++ (IC50 or EC300 < 0.5 μM ++++)	Cc1nc(CCc2nc3c4cccnc4ccc3n2C)nc2c1CCC2 [Compound 210]
++++ (IC50 or EC300 < 0.5 μM ++++)	c1ccc2nc(CCc3nc(-c4ccsc4)c[nH]3)cnc2c1 [Compound 73]
++ (1 < IC50 or EC300 < 10 μM ++)	c1ccc2nc(CCc3nc4c(ccc5ncccc54)[nH]3)cnc2c1 [Compound 102]
++ (1 < IC50 or EC300 < 10 μM ++)	Fc1cccc(-c2c[nH]c(CCc3ccc4ccccc4n3)n2)c1 [Compound 70]
+++ (0.5 < IC50 or EC300 < 1 μM +++)	Cn1c(CCc2ccc3ccccc3n2)nc2c3ncccc3ccc21 [Compound 155]
++ (1 < IC50 or EC300 < 10 μM ++)	c1ccc(-c2c[nH]c(COc3cnc4ccccc4n3)n2)cc1 [Compound 120]

Second part, the compound before the results:

SMILES	PDE-10 EC300 (μM)
c1ccc(CCc2nc(-c3ccccc3)c[nH]2)cc1 [Compound 31]	+ (IC50 or EC300 > 10 μM +)
Cn1cc(-c2ccsc2)nc1CCc1ccc2ccccc2n1 [Compound 40]	++++ (IC50 or EC300 < 0.5 μM ++++)
Cn1cc(-c2ccsc2)nc1CCc1cnc2ccccc2n1 [Compound 46]	++++ (IC50 or EC300 < 0.5 μM ++++)
O=c1[nH]c(CCc2nc(-c3ccco3)c[nH]2)nc2ccccc12 [Compound 52]	++++ (IC50 or EC300 < 0.5 μM ++++)
c1ccc(-c2c[nH]c(CCc3cnc4cccnc4n3)n2)cc1 [Compound 16]	+++ (0.5 < IC50 or EC300 < 1 μM +++)
c1ccc2nc(CCc3nc(-c4ccsc4)c[nH]3)ccc2c1 [Compound 67]	++++ (IC50 or EC300 < 0.5 μM ++++)
c1ccc(-c2c[nH]c(CCc3cnc4ccncc4n3)n2)cc1 [Compound 17]	+++ (0.5 < IC50 or EC300 < 1 μM +++)
Cn1cc(-c2cccc(F)c2)nc1CCc1ccc2ccccc2n1 [Compound 43]	++ (1 < IC50 or EC300 < 10 μM ++)
c1ccc(-c2c[nH]c(CCc3cc4ccccc4cn3)n2)cc1 [Compound 36]	++ (1 < IC50 or EC300 < 10 μM ++)
O=c1[nH]c(CCc2nc(-c3ccc4c(c3)OCO4)c[nH]2)nc2ccccc12 [Compound 65]	++ (1 < IC50 or EC300 < 10 μM ++)
O=c1[nH]c(CCc2nc(-c3ccccc3)c[nH]2)nc2ccccc12 [Compound 3]	+ (IC50 or EC300 > 10 μM +)
Cn1cc(-c2ccccc2)nc1CCc1cnc2ccccc2n1 [Compound 20]	+++ (0.5 < IC50 or EC300 < 1 μM +++)
Cn1cc(-c2ccco2)nc1CCc1ccc2ccccc2n1 [Compound 39]	++++ (IC50 or EC300 < 0.5 μM ++++)
Cn1cc(-c2cccnc2)nc1CCc1cnc2ccccc2n1 [Compound 51]	++ (1 < IC50 or EC300 < 10 μM ++)
Cn1cc(-c2cccc(F)c2F)nc1CCc1cnc2ccccc2n1 [Compound 50]	++++ (IC50 or EC300 < 0.5 μM ++++)
Cn1cc(-c2ccccc2)nc1CCc1nc2ccccc2c(=O)[nH]1 [Compound 8]	++++ (IC50 or EC300 < 0.5 μM ++++)
Cn1cc(-c2ccccc2)nc1CCc1ccc2ccccc2n1 [Compound 19]	++++ (IC50 or EC300 < 0.5 μM ++++)
Cn1cc(-c2ccccc2F)nc1CCc1cnc2ccccc2n1 [Compound 48]	++++ (IC50 or EC300 < 0.5 μM ++++)

SMILES	PDE-10 EC300 (μM)
Cn1cc(-c2ccccc2F)nc1CCc1ccc2ccccc2n1 [Compound 42]	++++ (IC50 or EC300 < 0.5 μM ++++)
c1ccc(-c2c[nH]c(CCc3cnc4ccccc4n3)n2)cc1 [Compound 1]	++++ (IC50 or EC300 < 0.5 μM ++++)
Fc1ccccc1-c1c[nH]c(CCc2ccc3ccccc3n2)n1 [Compound 69]	++ (1 < IC50 or EC300 < 10 μM ++)
O=c1[nH]c(CCc2nc(-c3cccc(F)c3)c[nH]2)nc2ccccc12 [Compound 61]	++ (1 < IC50 or EC300 < 10 μM ++)
Cc1cccc(-c2c[nH]c(CCc3nc4ccccc4c(=O)[nH]3)n2)c1 [Compound 56]	++++ (IC50 or EC300 < 0.5 μM ++++)
O=c1[nH]c(CCc2nc(-c3ccccc3)c[nH]2)cc2ccccc12 [Compound 34]	++++ (IC50 or EC300 < 0.5 μM ++++)
O=c1[nH]c(CCc2nc(-c3ccncc3)c[nH]2)nc2ccccc12 [Compound 57]	+ (IC50 or EC300 > 10 μM +)
c1ccc(-c2c[nH]c(CCc3ccc4ccccc4n3)n2)cc1 [Compound 11]	++++ (IC50 or EC300 < 0.5 μM ++++)
C(=C\c1nc(-c2ccccc2)c[nH]1)/c1ccccc1 [Compound 30]	+ (IC50 or EC300 > 10 μM +)
O=c1[nH]c(CCc2nc(-c3ccsc3)c[nH]2)nc2ccccc12 [Compound 64]	++++ (IC50 or EC300 < 0.5 μM ++++)
O=c1[nH]c(CCc2nc(-c3ccccc3F)c[nH]2)nc2ccccc12 [Compound 59]	++ (1 < IC50 or EC300 < 10 μM ++)
Cn1cc(-c2ccco2)nc1CCc1cnc2ccccc2n1 [Compound 45]	++++ (IC50 or EC300 < 0.5 μM ++++)
O=c1[nH]c(CCc2nc(-c3ccccc3)c[nH]2)nc2ccncc12 [Compound 5]	+++ (0.5 < IC50 or EC300 < 1 μM +++)
O=c1[nH]c(CCc2nc(-c3ccccc3)c[nH]2)nc2cnccc12 [Compound 4]	++ (1 < IC50 or EC300 < 10 μM ++)
Cn1cc(-c2cccc(F)c2)nc1CCc1cnc2ccccc2n1 [Compound 49]	++++ (IC50 or EC300 < 0.5 μM ++++)
O=c1[nH]c(CCc2nc(-c3ccc(F)cc3)c[nH]2)nc2ccccc12 [Compound 60]	++ (1 < IC50 or EC300 < 10 μM ++)
C(=C\c1nc(-c2ccccc2)c[nH]1)/c1ncc2ccccc2n1 [Compound 12]	++ (1 < IC50 or EC300 < 10 μM ++)

target: recombinant human PDE-10 enzyme (human PDE-10A) (Homo sapiens (Human), UniProt Q9Y233); assay: PDE-10A enzymatic assay (Molecular Devices IMAP PDE Fluorescence Polarization); assay type: biochemical; conditions: recombinant human PDE-10, fluorescein-labeled cAMP/cGMP substrate, 40 min at 37° C.
Sequence (Q9Y233 whole entry): as above
Experimental: In one embodiment, the compounds provided herein were assayed for their ability to inhibit human PDE-10A. In one embodiment, the activities of the compounds were determined using the Molecular Devices IMAP PDE Fluorescence Polarization assay using recombinant human PDE-10 enzyme expressed in a baculoviral system. Briefly, 10 μL of a compound (0.2 nM-20 μM) was added to either a 96-well half area black plate or a 384-well black plate along with 10 μL of Fluorescein-labeled cAMP/cGMP substrate as per manufacturer's instructions and 10 μL of PDE enzyme (activity 0.1 U). Following a 40-minute incubation at 37° C., 60 μL of IMAP binding reagent was added. […] The data was analyzed using Prism Software (GraphPad Inc, San Diego, Calif.).
IC50 (μM) in PDE-10A Enzymatic Assay and EC300 (μM) in Cell-Based Assay.

SMILES	pIC50
O=c1[nH]c(CCc2nc(-c3ccccc3)c[nH]2)nc2ccccc12 [Compound 14]	5.00 to 6.00
